Measurements taken from PMC5940854, “Nitrothiophene carboxamides, a novel narrow spectrum antibacterial series: Mechanism of action and Efficacy” (Scientific Reports, 2018).
In brackets after ≈: the same amount, converted by molar mass.

Experiments:
E. coli ∆acrB JW0451-2 = test: MIC, E. coli ∆acrB; type: cell-based; parameters: MIC ∆acrB: unit not given beside the values
How it was run: (§1)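 Single colonies grown in M9; compounds diluted two-fold in DMSO and added to 3–7 × 10^5 CFU/ml cultures, final 40 to 0.3 µg/mL. Wells at and above MIC diluted 1:10 and plated on LB agar for MBC.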

[1] = tested on: wild-type E. coli CGSC#7636 (BW25113); test: MIC, wild-type E. coli; type: cell-based; settings: Escherichia coli, BW25113, Table S11; read-out: MIC WT
How it was run: as §1

[2] = tested on: E. coli clinical isolates; test: MIC on panel of E. coli clinical isolates; type: cell-based
NfsB = biological target: T1, NfsB (Escherichia coli, UniProt P38489); test: Nitroreductase activity assay, NfsB; type: biochemical, E. coli; settings: 20 μM compound, 40 μM NADH, 70 nM NfsB; slope of initial velocity
T1 construct: His-tag; made in house; host or cells: E. coli BL21(DE3), pET28a (pET-nfsB)
T1 sequence (P38489 whole entry): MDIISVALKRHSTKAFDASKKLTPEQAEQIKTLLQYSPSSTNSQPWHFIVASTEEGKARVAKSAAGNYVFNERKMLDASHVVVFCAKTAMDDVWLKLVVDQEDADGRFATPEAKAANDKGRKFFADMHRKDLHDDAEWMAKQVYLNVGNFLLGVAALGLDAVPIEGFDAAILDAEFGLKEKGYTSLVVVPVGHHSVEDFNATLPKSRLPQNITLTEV
How it was run: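 NADPH (40 μM) oxidation by 10 nM NfsA, or NADH (40 μM) oxidation by 70 nM NfsB, against 20 μM nitro substrate in 50 mM Tris-HCl pH 7.4, 5 mM EDTA; NfsA run at 25 °C. Fluorescence decrease (ex 340/em 485 NADPH; ex 350/em 460 NADH) read every 10 s; first-90-s slopes, blank-corrected, expressed relative to nitrofurantoin with NfsB.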

[3] = tested on: E. coli ∆nfsAB & ∆acrB+nfnB; parameters: unit not given beside the values
Experimental: The inoculum used for all the experiments is derived from a single seed lot that is maintained as glycerol stocks at −80 °C and are sub cultured on LB plate for isolated colonies. Single colony of each strain is grown in M9 medium. All test compound stocks and dilutions are prepared in DMSO. Serial two-fold dilutions of compounds are prepared separately, with the concentrations ranging from 2 mg/mL to 0.015 mg/mL. To 150 µl (3–7 × 10^5 CFU/ml) of bacterial culture in 96 well microtitre plates, 3 μL compound from each of the dilutions is added to respective wells to obtain final concentrations ranging from 40 µg/mL to 0.3 µg/mL of the test compounds. Media control, culture control and appropriate reference drug controls are included. […] Growth is monitored by checking absorbance at 600 nm (A600). […] The samples from MIC and above concentrations are plated for MBC (Minimum Bactericidal Concentration). The samples are diluted 1:10 and plated on LB agar plates. […] The killing kinetics is determined by enumerating survivors at various time points following compound exposure. E. coli cells (~10^7 CFU/ml; A600 of 0.1) are treated with various concentrations (40 µg/mL to 0.3 µg/mL) of compounds in a 96-well microtitre plate. At various time intervals (0 to 8 h), 30 μl volumes of treated cultures are serially diluted and plated on LB agar plates. […] Data is expressed as the log10 CFU for each drug treatment.

COc1cc(-c2csc(NC(=O)c3ccc([N+](=O)[O-])s3)n2)ccc1Cl [compound 20, N-(4-(4-chloro-3-methoxyphenyl)thiazol-2-yl)-5-nitrothiophene-2-carboxamide]
MIC (E. coli ∆acrB JW0451-2; Escherichia coli, read-out: MIC acrB): 0.3 µg/mL (≈ 0.758 µM) | MIC ∆acrB (E. coli ∆acrB JW0451-2; Table S11): 0.3 | MIC [1]: 1.25 µg/mL (≈ 3.16 µM) | MIC Range ([2]; 75 E.coli clinical isolates): 0.6 to 10 µg/mL | MIC50 ([2]; Escherichia coli, 75 E.coli clinical isolates, 50% clinical isolates): 5 µg/mL (≈ 12.6 µM) | MIC90 ([2]; Escherichia coli, 75 E.coli clinical isolates, 90% clinical isolates): 10 µg/mL (≈ 25.3 µM) | MIC ([2]; strain SEC001): 8 µg/mL (≈ 20.2 µM) | MIC ([2]; strain SEC002): 8 µg/mL (≈ 20.2 µM) | MIC ([2]; strain SEC003): 8 µg/mL (≈ 20.2 µM) | MIC ([2]; strain SEC004): 8 µg/mL (≈ 20.2 µM) | MIC ([2]; strain SEC005): 8 µg/mL (≈ 20.2 µM) | MIC ([2]; strain SEC006): 8 µg/mL (≈ 20.2 µM) | MIC ([2]; strain SEC007): 8 µg/mL (≈ 20.2 µM) | MIC ([2]; strain SEC008): 8 µg/mL (≈ 20.2 µM) | MIC ([2]; strain SEC011): 8 µg/mL (≈ 20.2 µM) | MIC ([2]; strain SEC012): 2 µg/mL (≈ 5.05 µM) | MIC ([2]; strain SEC013): 8 µg/mL (≈ 20.2 µM) | MIC ([2]; strain SEC014): 8 µg/mL (≈ 20.2 µM) | MIC ([2]; strain SEC015): 8 µg/mL (≈ 20.2 µM) | MIC ([2]; strain SEC016): 2 µg/mL (≈ 5.05 µM) | MIC ([2]; strain SEC017): 0.06 µg/mL (≈ 0.152 µM) | MIC ([2]; strain SEC018): 1 µg/mL (≈ 2.53 µM) | MIC ([2]; strain SEC019): 2 µg/mL (≈ 5.05 µM) | MIC ([2]; strain SEC020): 8 µg/mL (≈ 20.2 µM) | MIC ([2]; strain SEC021): 1 µg/mL (≈ 2.53 µM) | MIC ([2]; strain SEC022): 4 µg/mL (≈ 10.1 µM) | MIC ([2]; strain SEC023): 8 µg/mL (≈ 20.2 µM) | MIC ([2]; strain SEC024): 8 µg/mL (≈ 20.2 µM) | MIC ([2]; strain SEC025): 4 µg/mL (≈ 10.1 µM) | MIC ([2]; strain SEC026): 8 µg/mL (≈ 20.2 µM) | MIC ([2]; strain SEC028): 1 µg/mL (≈ 2.53 µM) | MIC ([2]; strain SEC029): 2 µg/mL (≈ 5.05 µM) | MIC ([2]; strain SEC031): 1 µg/mL (≈ 2.53 µM) | MIC ([2]; strain SEC032): 8 µg/mL (≈ 20.2 µM) | MIC ([2]; strain SEC033): 2 µg/mL (≈ 5.05 µM) | MIC ([2]; strain SEC034): 8 µg/mL (≈ 20.2 µM) | MIC ([2]; strain SEC035): 8 µg/mL (≈ 20.2 µM) | MIC ([2]; strain SEC036): 8 µg/mL (≈ 20.2 µM) | MIC ([2]; strain SEC037): 1 µg/mL (≈ 2.53 µM) | MIC ([2]; strain SEC038): 0.25 µg/mL (≈ 0.632 µM) | MIC ([2]; strain SEC039): 8 µg/mL (≈ 20.2 µM) | MIC ([2]; strain SEC040): 2 µg/mL (≈ 5.05 µM) | MIC ([2]; strain SEC041): 8 µg/mL (≈ 20.2 µM) | MIC ([2]; strain SEC042): 8 µg/mL (≈ 20.2 µM) | MIC ([2]; strain SEC043): 8 µg/mL (≈ 20.2 µM) | MIC ([2]; strain SEC044): 8 µg/mL (≈ 20.2 µM) | MIC ([2]; strain SEC045): 2 µg/mL (≈ 5.05 µM) | MIC ([2]; strain SEC046): 8 µg/mL (≈ 20.2 µM) | MIC ([2]; strain SEC047): 0.25 µg/mL (≈ 0.632 µM) | MIC ([2]; strain SEC048): 8 µg/mL (≈ 20.2 µM) | MIC ([2]; strain SEC049): 8 µg/mL (≈ 20.2 µM) | MIC ([2]; strain SEC050): 8 µg/mL (≈ 20.2 µM) | MIC ([2]; strain SEC051): 8 µg/mL (≈ 20.2 µM) | MIC ([2]; strain SEC052): 1 µg/mL (≈ 2.53 µM) | MIC ([2]; strain SEC053): 2 µg/mL (≈ 5.05 µM) | MIC ([2]; strain SEC054): 2 µg/mL (≈ 5.05 µM) | MIC ([2]; strain SEC055): 2 µg/mL (≈ 5.05 µM) | MIC ([2]; strain SEC057): 8 µg/mL (≈ 20.2 µM) | MIC ([2]; strain SEC058): 8 µg/mL (≈ 20.2 µM) | MIC ([2]; strain SEC059): 2 µg/mL (≈ 5.05 µM) | MIC ([2]; strain SEC060): 8 µg/mL (≈ 20.2 µM) | MIC ([2]; strain SEC061): 4 µg/mL (≈ 10.1 µM) | MIC ([2]; strain SEC062): 1 µg/mL (≈ 2.53 µM) | MIC ([2]; strain SEC063): 2 µg/mL (≈ 5.05 µM) | MIC ([2]; strain SEC064): 8 µg/mL (≈ 20.2 µM) | MIC ([2]; strain SEC065): 2 µg/mL (≈ 5.05 µM) | MIC ([2]; strain SEC067): 2 µg/mL (≈ 5.05 µM) | MIC ([2]; strain SEC068): 8 µg/mL (≈ 20.2 µM) | MIC ([2]; strain SEC069): 8 µg/mL (≈ 20.2 µM) | MIC ([2]; strain SEC070): 8 µg/mL (≈ 20.2 µM) | MIC ([2]; strain SEC071): 1 µg/mL (≈ 2.53 µM) | MIC ([2]; strain SEC072): 4 µg/mL (≈ 10.1 µM) | MIC ([2]; strain SEC073): 8 µg/mL (≈ 20.2 µM) | MIC ([2]; strain SEC074): 8 µg/mL (≈ 20.2 µM) | MIC ([2]; strain SEC075): 4 µg/mL (≈ 10.1 µM) | MIC ([2]; strain SEC076): 4 µg/mL (≈ 10.1 µM) | MIC ([2]; strain SEC077): 2 µg/mL (≈ 5.05 µM) | MIC ([2]; strain SEC078): 4 µg/mL (≈ 10.1 µM) | MIC ([2]; strain SEC079): 2 µg/mL (≈ 5.05 µM) | MIC ([2]; strain SEC080): 4 µg/mL (≈ 10.1 µM) | NfsB activity (rate of compound conversion) (NfsB): 3.50 µM/min | MIC ∆nfsAB & ∆acrB+nfnB [3]: 0.6
